{
  "source": "patent US11046680B1",
  "about": "“Heteroaryl-substituted triazoles as APJ receptor agonists” (priority 2016, dated 2021)",
  "data": [
    {"target": "human APJ receptor (Homo sapiens (Human), UniProt P35414)", "sequence (P35414 whole entry)": "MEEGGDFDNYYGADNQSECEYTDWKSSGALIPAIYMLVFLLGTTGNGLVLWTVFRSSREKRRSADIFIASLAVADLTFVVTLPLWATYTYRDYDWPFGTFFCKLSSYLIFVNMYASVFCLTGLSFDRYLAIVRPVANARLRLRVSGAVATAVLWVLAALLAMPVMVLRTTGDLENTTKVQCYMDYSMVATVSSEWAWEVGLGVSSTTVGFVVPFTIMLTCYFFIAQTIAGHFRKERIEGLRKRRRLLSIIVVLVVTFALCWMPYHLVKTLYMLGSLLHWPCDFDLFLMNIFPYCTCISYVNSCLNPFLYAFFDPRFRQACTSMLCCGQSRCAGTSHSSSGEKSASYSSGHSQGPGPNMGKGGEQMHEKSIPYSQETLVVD", "experiment": "biochemical", "type": "biochemical", "settings": "[35S]GTPγS binding, CHO membranes expressing human APJ receptor; read-out: Activity hAPJ SPA EC50 IP", "in_short": "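GTPγS binding on membranes from CHO cells stably expressing FLAG-tagged human APJ, with optimized GDP, MgCl2 and NaCl; incubated 90 min at RT before imaging read-out.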", "units": {"EC50": "nM"}, "values": [
      {"molecule": "COc1cccc(OC)c1-n1c(NS(=O)(=O)[C@@H](C)Cc2ncc(F)cn2)nnc1-c1cccnn1", "note": "(single isomer, unassigned) [Example 33.0, (2S)-N-(4-(2,6-dimethoxyphenyl)-5-(3-pyridazinyl)-4H-1,2,4-triazol-3-yl)-1-(5-fluoro-2-pyrimidinyl)-2-propanesulfonamide or (2R)-N-(4-(2,6-dimethoxyphenyl)-5-(3-pyridazinyl)-4H-1,2,4-triazol-3-yl)-1-(5-fluoro-2-pyrimidinyl)-2-propanesulfonamide]", "EC50": 190},
      {"molecule": "COc1cccc(OC)c1-n1c(NS(=O)(=O)[C@@H](C)[C@H](OC)c2ccc(C#N)cc2C#N)nnc1-c1ccn(C)n1", "note": "(mixture of isomers) [Example 264.0, (1S,2R)-1-(2,4-dicyanophenyl)-N-(4-(2,6-dimethoxyphenyl)-5-(1-methyl-1H-pyrazol-3-yl)-4H-1,2,4-triazol-3-yl)-1-methoxy-2-propanesulfonamide and (1R,2S)-1-(2,4-dicyanophenyl)-N-(4-(2,6-dimethoxyphenyl)-5-(1-methyl-1H-pyrazol-3-yl)-4H-1,2,4-triazol-3-yl)-1-methoxy-2-propanesulfonamide]", "EC50": 0.8},
      {"molecule": "COc1ccc(N(C)C)cc1-n1c(NS(=O)(=O)CCc2ccc(Cl)cc2)nnc1-c1cccs1", "note": "[Example 252.0, 2-(4-chlorophenyl)-N-(4-(5-(dimethylamino)-2-methoxyphenyl)-5-(2-thiophenyl)-4H-1,2,4-triazol-3-yl)ethanesulfonamide]", "EC50": 11},
      {"molecule": "COc1ccc(Cl)cc1-n1c(NS(=O)(=O)CCc2ccc(F)cc2)nnc1-c1cccs1", "note": "[Example 360.0, N-(4-(5-Chloro-2-methoxyphenyl)-5-(thiophen-2-yl)-4H-1,2,4-triazol-3-yl)-2-(4-fluorophenyl)ethanesulfonamide]", "EC50": 194},
      {"molecule": "CC(C)O[C@@H](c1ncc(Cl)cn1)[C@H](C)S(=O)(=O)Nc1nnc(-c2ccn(C)n2)n1C(C)C", "note": "[Example 537.0, (1S,2S)-1-(5-chloro-2-pyrimidinyl)-N-(5-(1-methyl-1H-pyrazol-3-yl)-4-(2-propanyl)-4H-1,2,4-triazol-3-yl)-1-(2-propanyloxy)-2-propanesulfonamide]", "EC50": 27},
      {"molecule": "(1R,2S)-N-(4-(2,6-dimethoxyphenyl)-5-(1H-pyrro1o[2,3-b]pyridin-3-yl)-4H-1,2,4-triazol-3-yl)-1-methoxy-1-(5-methylpyrimidin-2-yl)propane-2-sulfonamide [Example 413.0]", "EC50": 30},
      {"molecule": "COc1cccc(OC)c1-n1c(NS(=O)(=O)[C@@H](C)[C@H](C)c2ncc(F)cn2)nnc1-c1nc(C)cs1", "note": "(single isomer, unassigned) [Example 120.0]", "EC50": 0.17},
      {"molecule": "COc1cccc(OC)c1-n1c(NS(=O)(=O)[C@@H](C)[C@H](OC)c2ncc(Cl)cn2)nnc1-c1n[nH]c2ccc(C)cc12", "note": "[Example 418.0, (1R,25)-1-(5-chloropyrimidin-2-yl)-N-(4-(2,6-dimethoxyphenyl)-5-(5-methyl-1H-indazol-3-yl)-4H-1,2,4-triazol-3-yl)-1-methoxypropane-2-sulfonamide]", "EC50": 5.5},
      {"molecule": "COc1ncnc(OC)c1-n1c(NS(=O)(=O)[C@@H](C)[C@H](C)c2ccc(Cl)cn2)nnc1-c1cnn(C)c1", "note": "[Example 535.0, (2S,3R)-3-(5-chloro-2-pyridinyl)-N-(4-(4,6-dimethoxy-5-pyrimidinyl)-5-(1-methyl-1H-pyrazol-4-yl)-4H-1,2,4-triazol-3-yl)-2-butanesulfonamide]", "EC50": 0.66},
      {"molecule": "COc1ncnc(OC)c1-n1c(NS(=O)(=O)[C@@H](C)[C@H](C)c2ncc(Cl)cn2)nnc1-c1n[nH]c2ccccc12", "note": "[Example 426.0, (2S,3R)-3-(5-chloropyrimidin-2-yl)-N-(4-(4,6-dimethoxypyrimidin-5-yl)-5-(1H-indazol-3-yl)-4H-1,2,4-triazol-3-yl)butane-2-sulfonamide]", "EC50": 14},
      {"molecule": "COc1nccc(-c2nnc(NS(=O)(=O)[C@@H](C)[C@H](C)c3ncc(F)cn3)n2-c2c(OC)cccc2OC)n1", "note": "[Example 197.0, (2S,3R)-N-(4-(2,6-dimethoxyphenyl)-5-(2-methoxy-4-pyrimidinyl)-4H-1,2,4-triazol-3-yl)-3-(5-fluoro-2-pyrimidinyl)-2-butanesulfonamide]", "EC50": 2.4},
      {"molecule": "CCO[C@H](c1ncc(C)cn1)[C@H](C)S(=O)(=O)Nc1nnc(-c2cc3n(n2)CCC3)n1-c1c(OC)cccc1OC", "note": "[Example 217.0, (1R,2S)-N-(5-(5,6-dihydro-4H-pyrrolo[1,2-b]pyrazol-2-yl)-4-(2,6-dimethoxyphenyl)-4H-1,2,4-triazol-3-yl)-1-ethoxy-1-(5-methyl-2-pyrimidinyl)-2-propanesulfonamide]", "EC50": 2.8},
      {"molecule": "COc1cccc(OC)c1-n1c(NS(=O)(=O)[C@@H](C)[C@H](OC)c2ncc(Cl)cn2)nnc1-c1ncnc2cc[nH]c12", "note": "[Example 434.0, (1R,2S)-1-(5-chloropyrimidin-2-yl)-N-(4-(2,6-dimethoxyphenyl)-5-(5H-pyrrolo[3,2-d]pyrimidin-4-yl)-4H-1,2,4-triazol-3-yl)-1-methoxypropane-2-sulfonamide]", "EC50": 8.6},
      {"molecule": "COc1cccc(OC)c1-n1c(NS(=O)(=O)[C@H](C)Cc2ncc(F)cn2)nnc1-c1nc(C2CC2)cs1", "note": "[Example 161.0]", "EC50": 3.8},
      {"molecule": "COCC1(n2c(NS(=O)(=O)[C@@H](C)[C@H](OC)c3ncc(Cl)cn3)nnc2-c2noc3ccccc23)CC1", "note": "[Example 505.0, (1R,2S)-N-(5-(1,2-benzoxazol-3-yl)-4-(1-(methoxymethyl)cyclopropyl)-4H-1,2,4-triazol-3-yl)-1-(5-chloro-2-pyrimidinyl)-1-methoxy-2-propanesulfonamide]", "EC50": 8.5},
      {"molecule": "COc1cccc(OC)c1-n1c(NS(=O)(=O)CCc2ccc(Cl)cc2)nnc1-c1cncs1", "note": "[Example 137.0, 2-(4-chlorophenyl)-N-(4-(2,6-dimethoxyphenyl)-5-(thiazol-5-yl)-4H-1,2,4-triazol-3-yl)ethanesulfonamide]", "EC50": 30},
      {"molecule": "COc1cccc(OC)c1-n1c(NS(=O)(=O)[C@H](C)Cc2ncc(F)cn2)nnc1-c1nc(C(C)C)cs1", "note": "(single isomer, unassigned) [Example 158.0, (R)-N-(4-(2,6-dimethoxyphenyl)-5-(4-isopropylthiazol-2-yl)-4H-1,2,4-triazol-3-yl)-1-(5-fluoropyrimidin-2-yl)propane-2-sulfonamide or (S)-N-(4-(2,6-dimethoxyphenyl)-5-(4-isopropylthiazol-2-yl)-4H-1,2,4-triazol-3-yl)-1-(5-fluoropyrimidin-2-yl)propane-2-sulfonamide]", "EC50": 4.1},
      {"molecule": "CCn1ccc(-c2nnc(NS(=O)(=O)[C@@H](C)[C@H](OC)c3ncc(Cl)cn3)n2-c2c(OC)cccc2OC)n1", "note": "[Example 393.0, (1R,2S)-1-(5-chloropyrimidin-2-yl)-N-(4-(2,6-dimethoxyphenyl)-5-(1-ethyl-1H-pyrazol-3-yl)-4H-1,2,4-triazol-3-yl)-1-methoxypropane-2-sulfonamide]", "EC50": 0.47},
      {"molecule": "COc1ncnc(OC)c1-n1c(NS(=O)(=O)[C@@H](C)[C@H](C)c2ncc(F)cn2)nnc1-c1cnn2c1CCC2", "note": "[Example 480.0, (2S,3R)-N-(5-(5,6-dihydro-4H-pyrrolo[1,2-b]pyrazol-3-yl)-4-(4,6-dimethoxypyrimidin-5-yl)-4H-1,2,4-triazol-3-yl)-3-(5-fluoropyrimidin-2-yl)butane-2-sulfonamide]", "EC50": 4.4},
      {"molecule": "COc1cnc([C@H](C)[C@@H](C)S(=O)(=O)Nc2nnc(-c3ccn(C)n3)n2-c2c(OC)cccc2OC)nc1", "note": "[Example 457.0, (2R,3S)-N-(4-(2,6-dimethoxyphenyl)-5-(1-methyl-1H-pyrazol-3-yl)-4H-1,2,4-triazol-3-yl)-3-(5-methoxy-2-pyrimidinyl)-2-butanesulfonamide]", "EC50": 25},
      {"molecule": "CCc1csc(-c2nnc(NS(=O)(=O)[C@H](C)Cc3ncc(F)cn3)n2-c2c(OC)cccc2OC)n1", "note": "(single isomer, unassigned) [Example 104.0, (R)-N-(4-(2,6-dimethoxyphenyl)-5-(4-ethylthiazol-2-yl)-4H-1,2,4-triazol-3-yl)-1-(5-fluoropyrimidin-2-yl)propane-2-sulfonamide or (S)-N-(4-(2,6-dimethoxyphenyl)-5-(4-ethylthiazol-2-yl)-4H-1,2,4-triazol-3-yl)-1-(5-fluoropyrimidin-2-yl)propane-2-sulfonamide]", "EC50": 4.6},
      {"molecule": "COc1cnc([C@@H](C)[C@H](C)S(=O)(=O)Nc2nnc(-c3cnn4c3CCC4)n2-c2c(OC)cccc2OC)nc1", "note": "[Example 485.0, (2S,3R)-N-(5-(5,6-dihydro-4H-pyrrolo[1,2-b]pyrazol-3-yl)-4-(2,6-dimethoxyphenyl)-4H-1,2,4-triazol-3-yl)-3-(5-methoxypyrimidin-2-yl)butane-2-sulfonamide]", "EC50": 0.3},
      {"molecule": "COc1ccc(N2CCC2=O)cc1-n1c(NS(=O)(=O)CCc2ccc(F)cc2)nnc1-c1cccs1", "note": "[Example 130.0, 2-(4-Fluorophenyl)-N-(4-(2-methoxy-5-(2-oxo-1-azetidinyl)phenyl)-5-(2-thiophenyl)-4H-1,2,4-triazol-3-yl)ethanesulfonamide]", "EC50": 3.5},
      {"molecule": "COc1ccccc1-n1c(NS(=O)(=O)CCc2ccc(Cl)cc2)nnc1-c1ccc(F)s1", "note": "[Example 239.0, 2-(4-chlorophenyl)-N-(5-(5-fluorothiophen-2-yl)-4-(2-methoxyphenyl)-4H-1,2,4-triazol-3-yl)ethanesulfonamide]", "EC50": 210},
      {"molecule": "COc1cccc(OC)c1-n1c(NS(=O)(=O)CCc2ccc(Cl)cc2)nnc1-c1cncn1C", "note": "[Example 93.0, 2-(4-chlorophenyl)-N-(4-(2,6-dimethoxyphenyl)-5-(1-methyl-1H-imidazol-5-yl)-4H-1,2,4-triazol-3-yl)ethanesulfonamide]", "EC50": 20},
      {"molecule": "CCS(=O)(=O)Nc1nnc(-c2cc([C@@H](O)c3ccc(Cl)cc3S(C)(=O)=O)n(C)n2)n1-c1c(OC)cccc1OC", "note": "[Example 382.0, N-(5-(5-((R)-(4-Chloro-2-(methylsulfonyl)phenyl)(hydroxy)methyl)-1-methyl-1H-pyrazol-3-yl)-4-(2,6-dimethoxyphenyl)-4H-1,2,4-triazol-3-yl)ethanesulfonamide and N-(5-(5-((S)-(4-chloro-2-(methylsulfonyl)phenyl)(hydroxy)methyl)-1-methyl-H-pyrazol-3-yl)-4-(2,6-dimethoxyphenyl)-4H-1,2,4-triazol-3-yl)ethanesulfonamide]", "EC50": 260}
    ]}
  ]
}
